Laboratory results published in US12264150B2, “NR4A1 ligands, pharmaceutical compositions, and related methods of use” (The Texas A&M University System, priority 2017, dated 2025).
Entries after “also recorded” stand apart in the source; their conditions may differ.

Experiments:
[1] = test system: NR4A1, Rab4, AMPK; experiment: Western blots of whole cell lysates of C2C12 muscle cells; format: cell-based, murine; settings: western blot
Source text: FIGS. 25A-25D are images of western blots of whole cell lysates of C2C12 cells treated with C-DIM analogs, according to embodiments of the present disclosure;
(§1) There is also evidence that NR4A1 plays a role in enhancing glucose metabolism in muscle and this is consistent with potential anti-diabetic activity for NR4A1 ligands which has previously been reported for cytosporone-derived NR4A1 ligands in mouse models. Initial studies with DIM-C-pPhOH and second generation substituted analogs used C2C12 muscle cells as a model for investigating the anti-diabetic activity of these compounds. FIGS. 25A-25D illustrate that NR4A1 is expressed in C2C12 cells and treatment with C-DIM8 (DIM-C-pPhOH) or the second generation substituted C-DIM8 analogs 3,5-dibromo-(C-DIM8-3,5-Br2), 3-chloro-(C-DIM8-3-Cl), and 3-chloro-5-methoxy-(C-DIM8-3-Cl-5-OCH3) increased expression of NR4A1 in C2C12 cells.

[2] = test system: human MDA-MB-231 breast cancer cells; experiment: Orthotopic breast tumor growth in athymic nude mice; format: in vivo, mouse; settings: for tumor growth: 10 mg/kg/day, athymic nude mice, orthotopic model; for ED50 values for tumor growth inhibition: expected from the 10 mg/kg/day result
Protocol: FIGS. 12A-12C graphically illustrate mammary tumor volume in an athymic nude mouse xenograft model using human MDA-MB-231 breast cancer cells treated with 4-hydroxy C-DIM analogs (10 mg/kg/day) (black) relative to a control (gray), according to embodiments of the present disclosure;

[3] = test system: RMS xenograft tumor; experiment: RMS mouse xenograft tumor growth
[4] = test system: G6Pase and PEPCK; experiment: G6Pase and PEPCK in glucose-starved HepG2 cells; format: cell-based
[5] = test system: SERPINB5; experiment: SERPINB5 induction (western blot) in SKBR3 breast cancer cells; format: cell-based; settings: for potency order for inducing SERPINB5: western blot, FIGS. 3 and 5
Source text: FIG. 5 includes images of western blots of SKBR3 (breast) cancer cells treated with 4-, 3- and 2-hydroxy C-DIM compounds, according to embodiments of the present disclosure, showing up-regulation of expression of SERPINB5;
In this study, the DMSO (control) value was relatively high, resulting in low induction by the 4-hydroxy compound, whereas in other experiment induction was observed due to lower basal SERPINB5 levels.

[6] = test system: C2C12 cells; experiment: Glucose uptake in C2C12 cells; format: cell-based, murine; settings: 15 and 20 μM
Source text: FIG. 27 graphically illustrates glucose uptake in C2C12 cells treated with C-DIM analogs, according to embodiments of the present disclosure;

[7] = test system: tumor growth; settings: cited from earlier work
[8] = test system: SERPINB5; experiment: SERPINB5 induction (western blot) in Panc1 cells; format: cell-based; settings: 20 μM
[9] = test system: TXNDC5 and PAX3-FOX01A; experiment: Western blot of NR4A1-regulated gene products in Rh30 rhabdomyosarcoma cells; format: cell-based; settings: 20 μM
Source text: FIG. […]
The effects of the 4-hydroxy reference compound and the nine analogs were compared with respect to down-regulation of two NR4A1-regulated gene products in Rh30 rhabdomyosarcoma cells, namely TXNDC5 and PAX3-FOX01A. […] The results also indicate that NR4A1-dependent transactivation assays appear to be less predictive than NR4A1-regulated gene products in determining differences in NR4A1 antagonist potencies.

[10] = test system: GAL4-NR4A1; experiment: GAL4-NR4A1/UAS-Luc transactivation (luciferase) in Panc1 cells; format: cell-based
Source text: (§2) FIG. 2 graphically illustrates luciferase activity in Panc1 cells transfected with GAL4-NR4A1 and GAL4-NR4A2 and UAS-Luc (GAL4-binding luciferase construct) treated with 4-, 3- and 2-hydroxy C-DIM analogs according to embodiments of the present disclosure;
Therefore, nine substituted 4-hydroxy analogs were synthesized to investigate their relative potencies as NR4A1 ligands and their half-lives since some of the substituents buttress the hydroxy group. Their effects on activation/inactivation of GAL4-NR4A1 and GAL4-NR4A2 in Panc1 cells were determined (see FIGS. 9 and 13).

[11] = test system: NR4A1 and GLUT-4 gene expression; experiment: NR4A1/GLUT-4 mRNA expression in C2C12 cells; format: cell-based, murine
Source text: FIGS. 26A-26D graphically illustrate relative NR4A1/glucose transporter 4 (GLUT-4) mRNA expression in C2C12 cells treated with C-DIM analogs, according to embodiments of the present disclosure;
as §1

[12] = target: NR4A1 (Homo sapiens, UniProt P22736); experiment: NR4A1 binding affinity of the 4-hydroxy compound
[13] = test system: cancer cell lines; settings: cited from earlier work
[14] = target: T1, NR4A1 LBD (Homo sapiens, UniProt P22736); experiment: Surface plasmon resonance binding, immobilized NR4A1 LBD; settings: 5 or 10 μM ligand, 25° C., Biacore 3000, CM5 chip
T1 construct: Purified NR4A1 and NR4A2 LBD proteins were covalently immobilized
Protocol: (§3) Binding experiments were performed using the SPR method at 25° C. on Biacore 3000 system (GE Healthcare). Purified NR4A1 and NR4A2 LBD proteins were covalently immobilized on CM5 sensor chip (GE) using an amine coupling procedure. Alternatively, the more expensive his-tag-binding NTA sensor chip (GE) can be used to insure correct protein surface orientation. SPR response curves (sensorgrams) were generated after ligand injection using 5 or 10 μM DIM-C-pPhX analogs with X=Br (#2), X═OH (#8), X═CN (#10) and X═CO2Me (#14) (see FIG. 22).

[15] = cited from earlier work
[16] = test system: β1-integrin and TXNDC5; experiment: Western blot down-regulation of β1-integrin and TXNDC5 in Panc1 and SKBR3 cells; format: cell-based; settings: FIG. 3
Source text: FIG. 3 includes images of western blots of Panc1 (pancreatic) and SKBR3 (breast) cancer cells treated with monohydroxy C-DIM compounds, according to embodiments of the present disclosure, showing down-regulation of expression of two NR4A1-dependent factors, β1-integrin and TXNDC5;
Compared to the 4-bromo standard NR4A2 ligand, the 3- and 2-hydroxy isomers had minimal NR4A2 activity. […] The results correlate with the transactivation data.

[17] = test system: GAL4-NR4A2; experiment: GAL4-NR4A2/UAS-Luc transactivation (luciferase) in Panc1 cells; format: cell-based
Source text: as §2
FIG. 13 graphically illustrates luciferase activity in Panc1 cells transfected with GAL4-NR4A2 and UAS-Luc treated with 3-hydroxy C-DIM analogs, according to embodiments of the present disclosure;
FIG. 15 graphically illustrates luciferase activity in Panc1 cells transfected with GAL4-NR4A2 and UAS-Luc treated with 2-hydroxy C-DIM analogs, according to embodiments of the present disclosure;

[18] = target: T2, NR4A2 LBD (Homo sapiens, UniProt P43354); experiment: Surface plasmon resonance binding, immobilized NR4A2 LBD; settings: 5 or 10 μM ligand, 25° C., Biacore 3000, CM5 chip
T2 construct: Purified NR4A1 and NR4A2 LBD proteins were covalently immobilized
Protocol: as §3

[19] = Blood glucose in C57BL/6 mice on a high-fat diet; format: in vivo, mouse
[20] = test system: PFKM, PGAM2, BPGM, PYGM; experiment: mRNA expression of glycolytic genes in C2C12 cells; format: cell-based, murine
Source text: FIGS. 28A-28E graphically illustrate relative mRNA expression of glycolytic genes in C2C12 cells treated with DIM-C-pPhOH (A), DIM-C-pPhOH-3,5-Br2 (B), DIM-C-pPhOH-3-Cl (C), and DIM-C-pPhOH-3-Cl-5-OCH3 (D) for 24 hr, or cells were transfected with NR4A1 expression plasmid (E);
Overexpression of NR4A1 in C2C12 cells induces several genes involved in glycolysis including phosphofructokinase (PFKM), phosphoglycerate mutase 2 (PGAM2), bisphosphoglycerated mutase (BPGM), and glycogen phosphorylase M (PYGM).

T1 sequence (P22736 360-595 limits assumed, species assumed): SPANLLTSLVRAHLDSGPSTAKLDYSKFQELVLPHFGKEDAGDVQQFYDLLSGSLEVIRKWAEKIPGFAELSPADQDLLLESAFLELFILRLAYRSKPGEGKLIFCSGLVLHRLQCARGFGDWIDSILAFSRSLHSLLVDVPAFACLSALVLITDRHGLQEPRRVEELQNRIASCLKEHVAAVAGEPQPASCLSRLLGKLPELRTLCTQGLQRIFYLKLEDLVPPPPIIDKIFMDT
NR4A1, sequence (P22736 whole entry, species assumed): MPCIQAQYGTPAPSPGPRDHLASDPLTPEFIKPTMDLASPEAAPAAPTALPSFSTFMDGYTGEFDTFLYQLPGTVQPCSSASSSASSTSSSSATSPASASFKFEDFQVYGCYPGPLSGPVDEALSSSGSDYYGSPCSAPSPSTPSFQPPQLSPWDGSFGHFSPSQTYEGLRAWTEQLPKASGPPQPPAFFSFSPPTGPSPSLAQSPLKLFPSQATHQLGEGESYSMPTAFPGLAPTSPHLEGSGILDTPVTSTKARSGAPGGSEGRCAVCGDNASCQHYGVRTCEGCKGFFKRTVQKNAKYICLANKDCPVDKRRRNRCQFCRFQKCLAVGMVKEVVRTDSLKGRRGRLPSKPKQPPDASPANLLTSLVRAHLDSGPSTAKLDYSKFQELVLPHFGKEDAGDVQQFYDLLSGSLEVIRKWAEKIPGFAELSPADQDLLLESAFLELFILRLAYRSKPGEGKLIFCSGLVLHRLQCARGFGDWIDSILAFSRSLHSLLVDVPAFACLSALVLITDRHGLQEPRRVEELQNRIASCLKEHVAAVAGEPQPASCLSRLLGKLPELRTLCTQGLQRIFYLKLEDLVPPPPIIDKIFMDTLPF
T2 sequence (P43354 360-595 limits assumed, species assumed): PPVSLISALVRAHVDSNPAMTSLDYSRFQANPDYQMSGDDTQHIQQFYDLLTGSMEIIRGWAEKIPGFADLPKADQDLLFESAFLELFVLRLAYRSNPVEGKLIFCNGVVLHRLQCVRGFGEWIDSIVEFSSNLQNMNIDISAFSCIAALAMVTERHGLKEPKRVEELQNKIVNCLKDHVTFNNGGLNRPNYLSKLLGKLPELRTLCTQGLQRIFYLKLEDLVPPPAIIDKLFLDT

Oc1ccc(C(c2c[nH]c3ccccc23)c2c[nH]c3ccccc23)cc1Cl [C-DIM8-3-Cl]
expression of NR4A1 [1]: increased
tumor growth [2]: inhibited tumor growth
ED50 values for tumor growth inhibition [2]: low mg/kg/day or high μg/kg/day range

Oc1c(Br)cc(C(c2c[nH]c3ccccc23)c2c[nH]c3ccccc23)cc1Br [C-DIM8-3,5-Br2]
RMS tumor growth ([3]; 0.25 mg/kg/d): tumor growth inhibition
RMS tumor growth ([3]; doses of 10.0, 7.5, 5.0 and 2.5 mg/kg/day): complete tumor growth inhibition
toxicity ([3]; in vivo study, RMS xenograft): not observed
G6Pase and PEPCK mRNA levels [4]: inhibit
expression of NR4A1 [1]: increased
tumor growth [2]: inhibited tumor growth
ED50 values for tumor growth inhibition [2]: low mg/kg/day or high μg/kg/day range

Oc1ccc(C(c2c[nH]c3ccccc23)c2c[nH]c3ccccc23)cc1 [DIM-C-pPhOH]
induction of SERPINB5 ([5]; SKBR3 cells, 20 μM, DMSO control value relatively high): minimally induced
potency order for inducing SERPINB5 [5]: 2-OH/3-OH>4-OH
glucose uptake [6]: significantly induced
partial tumor growth inhibition ([7]; 30-40 mg/kg/day, previous studies): 40-50%
doses at which tumor growth is (partially) inhibited ([7]; mouse, in vivo): 30 to 40 mg/kg/day
doses at which tumor growth is only partially inhibited ([7]; mouse, in vivo): 40 to 50 mg/kg/day
induction of SERPINB5 [8]: induced SERPINB5
G6Pase and PEPCK mRNA levels [4]: inhibit
expression of NR4A1 [1]: increased
decreased expression of TXNDC5 and PAX3-FOX01A [9]: 50-60%
concentration at which significant inhibition of GAL4-NR4A1 transactivation was observed ([10]; not at 15 μM (steep dose response curve)): 22.5 µM
NR4A1 and GLUT-4 gene expression [11]: induce
concentration of maximal induction of NR4A1 and GLUT-4 gene expression [11]: 20 µM
binding to NR4A1 [12]: high affinity
receptor-independent activities such as mitochondrial toxicity ([13]; cancer cell lines): minimal
concentrations that block the pro-oncogenic pathways ([13]; cell culture): 10 to 20 µM
SPR binding to NR4A1 [14]: bound with high affinity
in vivo half-life [15]: short; also recorded: very short
serum half-life ([15]; in vivo): relatively short

Oc1ccccc1C(c1c[nH]c2ccccc12)c1c[nH]c2ccccc12 [2-hydroxy compound]
potency order for inducing SERPINB5 [5]: 2-OH/3-OH>4-OH
potency in down-regulation of β1-integrin and TXNDC5 vs the 4-hydroxy compound [16]: more potent
NR4A2 activity (GAL4-NR4A2) compared to the 4-bromo reference [17]: minimal

Brc1ccc(C(c2c[nH]c3ccccc23)c2c[nH]c3ccccc23)cc1 [DIM-C-pPhBr, 1,1-bis(3′-indolyl)-1-(p-bromophenyl)methane]
SPR binding to NR4A2 [18]: sticky interactions
SPR binding to NR4A1 [14]: sticky interactions

COc1cc(C(c2c[nH]c3ccccc23)c2c[nH]c3ccccc23)cc(Cl)c1O [C-DIM8-3-Cl-5-OCH3]
serum glucose levels in a glucose tolerance test compared to control animals ([19]; 10 mg/kg/d): decreased
serum glucose ([19]; 25 mg/kg/d, current study): decreased
serum insulin levels ([19]; 25 mg/kg/d, current study): increased
blood glucose levels ([19]; HFD C57BL/6 mice, 10 mg/kg/d in corn oil, every second day, oral gavage): significant decrease
expression of NR4A1 [1]: increased
tumor growth [2]: inhibited tumor growth
ED50 values for tumor growth inhibition [2]: low mg/kg/day or high μg/kg/day range

CN(C)C(=N)N=C(N)N [metformin]
expression of glycolytic genes PFKM, PGAM2, BPGM, PYGM [20]: significantly induced
NR4A1 and GLUT-4 gene expression [11]: induce

Oc1cccc(C(c2c[nH]c3ccccc23)c2c[nH]c3ccccc23)c1 [3-hydroxy compound]
potency order for inducing SERPINB5 [5]: 2-OH/3-OH>4-OH
potency in down-regulation of β1-integrin and TXNDC5 vs the 4-hydroxy compound [16]: more potent
NR4A2 activity (GAL4-NR4A2) compared to the 4-bromo reference [17]: minimal

Oc1cccc(C(c2c[nH]c3ccccc23)c2c[nH]c3ccccc23)c1Br [2 bromo (3-hydroxy analog)]
potency in NR4A1-dependent transactivation vs unsubstituted 3- and 4-hydroxy DIM standards ([10]; substituted 3-hydroxy DIM analogs, FIG. 7): more potent

Oc1ccc(C(c2c[nH]c3ccccc23)c2c[nH]c3ccccc23)cc1F [3-fluoro-4-hydroxy analog]
potency as inhibitors of NR4A1-dependent transactivation relative to the 4-hydroxy reference compound ([10]; tested at 7.5 μM and 15 μM): exception
